Data reported in patent US20130017537A1, “METHOD OF IN-VITRO IMMUNOASSAY” (BASF Beauty Care Solutions France S.A.S., priority 2011, published 2013).
“And” between values parts separate entries of the source, which are not always exact repeats. Equal entries are not always repeated.

How the values were obtained:
[1] = system: type I collagen in the ECM; experiment: Assay of type I collagen in the ECM (anticollagen I antibody, europium TRF, Delfia) after NH4OH lysis of fibroblasts; format: cell-based, human; set-up: key to Coll I Mean: europium fluorescence normalized to measured dsDNA; details: for Coll I (RFU) Mean: 48 hours, donor; for Versus control Mean (Coll I): control = 100.00; for Coll I Mean / Ratio: Coll I/DNA Mean / Stat Mean (Coll I/DNA, control = 100.00): ECM
Description: After 48 hours of culture postconfluency, the culture medium was removed and discarded. A lysis step was carried out: 110 μl of an ammonium hydroxide solution at 20 mM for 10 minutes at room temperature and with stirring. The lysate was collected and analysed. The double-stranded DNA contained in the lysate was assayed by using the bisbenzimide method (Picogreen Kit, Invitrogen). The collagen in the ECM was assayed directly on the ECM by using an anticollagen I antibody. A secondary antibody conjugated to europium was used with a detection reagent and the fluorescence was measured. (Delfia® kit—Perkin Elmer). The fluorescence results were rationalized relative to the measured dsDNA rate. The experiment was carried out according to the protocol described in example 1 with fibroblasts extracted from a biopsy from a donor. […] The experiment was carried out according to the protocol described in example 1 with fibroblasts extracted from a biopsy of a donor.

[2] = system: type V collagen in the ECM; experiment: Assay of type V collagen in the ECM (anticollagen V antibody, europium TRF, Delfia) after NH4OH lysis of fibroblasts; format: cell-based, human; details: for Coll V (RFU) Mean: 48 hours, donor; for Versus control Mean (Coll V): control = 100.00
Description: A lysis step was carried out: 110 μl of an ammonium hydroxide solution at 20 mM for 10 minutes at room temperature and with stirring. The collagen V in the ECM was assayed directly on the ECM by using an anticollagen V antibody. A secondary antibody conjugated to europium was used with a detection reagent and the fluorescence was measured. (Delfia® kit—Perkin Elmer). The experiment was carried out according to the protocol described in example 1 with fibroblasts extracted from a biopsy from a donor.

[3] = system: extracellular procollagen; experiment: Procollagen ELISA (PIPc kit) on collected culture medium; format: cell-based, human
Description: The method described in example 1 was applied and the culture medium and lysis medium collected were analysed. On the collected culture medium, a procollagen assay was carried out (PIPc kit, TAKARA) by ELISA for determining the amount of extracellular procollagen (Table 4.1) The amounts of collagen and procollagen measured were rationalized to the amount of DNA present in each well. In experiment 6, procollagen was assayed in the culture medium collected in step b) in accordance with the method described in example 4.

[4] = system: intracellular procollagen; experiment: Procollagen ELISA (PIPc kit) on collected lysis medium; format: cell-based, human; details: for Procoll Mean (intracellular procollagen) / Ratio: Procoll/DNA Mean / Stat Mean (Procoll/DNA, control = 100.00): lysis medium
Description: The method described in example 1 was applied and the culture medium and lysis medium collected were analysed. On the collected lysis medium, a procollagen assay (PIPc kit, TAKARA) by ELISA is carried out for determining the amount of intracellular procollagen (Table 4.2). A DNA assay (Picogreen kit, Invitrogen) was also carried out for rationalizing all of the measurements in each well to the quantity of viable cells. The amounts of collagen and procollagen measured were rationalized to the amount of DNA present in each well.

normal human fibroblasts = experiment: Double-stranded DNA assay in the cell lysate (bisbenzimide, Picogreen) for quantity of viable cells; format: cell-based; set-up: unit not given here
Description: The lysate was collected and analysed. The double-stranded DNA contained in the lysate was assayed by using the bisbenzimide method (Picogreen Kit, Invitrogen). On the collected lysis medium, a procollagen assay (PIPc kit, TAKARA) by ELISA is carried out for determining the amount of intracellular procollagen (Table 4.2). A DNA assay (Picogreen kit, Invitrogen) was also carried out for rationalizing all of the measurements in each well to the quantity of viable cells.

collagen I = experiment: Immunohistochemical analysis of collagen I (confocal fluorescence); format: cell-based, human; details: 50 μM; 72 h
Description: After 72 h culture postconfluency, the culture medium was removed and immunolabelling was performed. The polyclonal anti-collagen I primary antibody was applied, then after removal of the medium the secondary antibody conjugated to a fluorochrome alexa 488 is added. The fluorescence was examined under the LSM700 confocal microscope.

[5] = ascorbic acid 0.1 μM, Example 4
[6] = ascorbic acid 100 μM, Example 5
[7] = ascorbic acid 100 μM, Example 4

O=C1O[C@H]([C@@H](O)CO)C(O)=C1O [Ascorbic acid, ascorbic acid]
Coll I (RFU) Mean ([1]; 50 μM, Example 6): 169132 RFU | Ratio: Coll/DNA Mean (Coll I) ([1]; 50 μM, Example 6): 340.49 | Versus control Mean (Coll I) ([1]; 50 μM, Example 6): 119.53 | effect of stimulation on the content of collagen I in the ECM (dose dependence) ([1]; Example 4, 0.1 to 100 μM): dose-dependent up to 50 μM | optimum dose for efficacy, collagen I assay ([1]; Example 5, 5 to 100 μM tested): 50 µM | stimulation of the synthesis of collagen I and V ([1]; Example 5, collagen I and V in the ECM): induces stimulation of the synthesis of collagen I and V with a significant dose effect | amount of collagen I in the ECM ([1]; Example 6, ascorbic acid at 50 μM, vegetable extract 1% (v/v)): significant increase | Coll I Mean [1, 5]: 74156 | Ratio: Coll I/DNA Mean [1, 5]: 233.65 | Stat Mean (Coll I/DNA, control = 100.00) [1, 5]: 105.33 | Coll I Mean ([1]; ascorbic acid 1 μM, Example 4): 74419 | Ratio: Coll I/DNA Mean ([1]; ascorbic acid 1 μM, Example 4): 246.46 | Stat Mean (Coll I/DNA, control = 100.00) ([1]; ascorbic acid 1 μM, Example 4): 111.10 | Coll I (RFU) Mean ([1]; ascorbic acid 5 μM, Example 5): 59802 RFU | Ratio: Coll/DNA Mean (Coll I) ([1]; ascorbic acid 5 μM, Example 5): 273.40 | Versus control Mean (Coll I) ([1]; ascorbic acid 5 μM, Example 5): 125.69 | Coll I (RFU) Mean ([1]; ascorbic acid 10 μM, Example 5): 59569 RFU | Coll I Mean ([1]; ascorbic acid 10 μM, Example 4): 78694 | Ratio: Coll I/DNA Mean ([1]; ascorbic acid 10 μM, Example 4): 280.82 | Stat Mean (Coll I/DNA, control = 100.00) ([1]; ascorbic acid 10 μM, Example 4): 126.59 | Ratio: Coll/DNA Mean (Coll I) ([1]; ascorbic acid 10 μM, Example 5): 239.53 | Versus control Mean (Coll I) ([1]; ascorbic acid 10 μM, Example 5): 110.12 | Coll I (RFU) Mean ([1]; ascorbic acid 25 μM, Example 5): 59088 RFU | Ratio: Coll/DNA Mean (Coll I) ([1]; ascorbic acid 25 μM, Example 5): 254.84 | Versus control Mean (Coll I) ([1]; ascorbic acid 25 μM, Example 5): 117.16 | Coll I (RFU) Mean ([1]; ascorbic acid 50 μM, Example 5): 54454 RFU | Coll I Mean ([1]; ascorbic acid 50 μM, Example 4): 79146 | Ratio: Coll I/DNA Mean ([1]; ascorbic acid 50 μM, Example 4): 284.31 | Stat Mean (Coll I/DNA, control = 100.00) ([1]; ascorbic acid 50 μM, Example 4): 128.17 | Ratio: Coll/DNA Mean (Coll I) ([1]; ascorbic acid 50 μM, Example 5): 309.87 | Versus control Mean (Coll I) ([1]; ascorbic acid 50 μM, Example 5): 130.66 | Coll I (RFU) Mean [1, 6]: 50765 RFU | Coll I Mean [1, 7]: 79796 | Ratio: Coll I/DNA Mean [1, 7]: 273.96 | Stat Mean (Coll I/DNA, control = 100.00) [1, 7]: 123.50 | Ratio: Coll/DNA Mean (Coll I) [1, 6]: 249.31 | Versus control Mean (Coll I) [1, 6]: 114.62 | Ratio: Coll/DNA Mean (Coll V) ([2]; ascorbic acid 5 μM): 59.83 | Coll V (RFU) Mean ([2]; ascorbic acid 5 μM): 12644 RFU | Versus control Mean (Coll V) ([2]; ascorbic acid 5 μM): 117.16 | Ratio: Coll/DNA Mean (Coll V) ([2]; ascorbic acid 10 μM): 58.76 | Coll V (RFU) Mean ([2]; ascorbic acid 10 μM): 14127 RFU | Versus control Mean (Coll V) ([2]; ascorbic acid 10 μM): 115.06 | Ratio: Coll/DNA Mean (Coll V) ([2]; ascorbic acid 25 μM): 68.69 | Coll V (RFU) Mean ([2]; ascorbic acid 25 μM): 16172 RFU | Versus control Mean (Coll V) ([2]; ascorbic acid 25 μM): 134.49 | Ratio: Coll/DNA Mean (Coll V) ([2]; ascorbic acid 50 μM): 68.86 | Coll V (RFU) Mean ([2]; ascorbic acid 50 μM): 16230 RFU | Versus control Mean (Coll V) ([2]; ascorbic acid 50 μM): 134.82 | Ratio: Coll/DNA Mean (Coll V) ([2]; ascorbic acid 100 μM): 73.12 | Coll V (RFU) Mean ([2]; ascorbic acid 100 μM): 17994 RFU | Versus control Mean (Coll V) ([2]; ascorbic acid 100 μM): 143.17 | Procoll (ng/ml) Mean ([3]; 50 μM, Example 7): 1983 ng/mL | Ratio: Procoll/DNA Mean ([3]; 50 μM, Example 7): 4.01 | Versus control Mean (ProColl/DNA) ([3]; 50 μM, Example 7, control = 100): 171.17 | Procoll Mean (extracellular procollagen) ([3]; ascorbic acid 0.1 μM): 1987 ng/mL | Ratio: Procoll/DNA Mean ([3]; ascorbic acid 0.1 μM): 6.26 | Stat Mean (Procoll/DNA, control = 100.00) ([3]; ascorbic acid 0.1 μM): 100.75 | Procoll Mean (extracellular procollagen) ([3]; ascorbic acid 1 μM): 1983 ng/mL | Ratio: Procoll/DNA Mean ([3]; ascorbic acid 1 μM): 6.57 | Stat Mean (Procoll/DNA, control = 100.00) ([3]; ascorbic acid 1 μM): 105.74 | Procoll Mean (extracellular procollagen) ([3]; ascorbic acid 10 μM): 2756 ng/mL | Ratio: Procoll/DNA Mean ([3]; ascorbic acid 10 μM): 9.83 | Stat Mean (Procoll/DNA, control = 100.00) ([3]; ascorbic acid 10 μM): 158.16 | Procoll Mean (extracellular procollagen) ([3]; ascorbic acid 50 μM): 2852 ng/mL | Ratio: Procoll/DNA Mean ([3]; ascorbic acid 50 μM): 10.25 | Stat Mean (Procoll/DNA, control = 100.00) ([3]; ascorbic acid 50 μM): 164.89 | Procoll Mean (extracellular procollagen) ([3]; ascorbic acid 100 μM): 2845 ng/mL | Ratio: Procoll/DNA Mean ([3]; ascorbic acid 100 μM): 9.78 | Stat Mean (Procoll/DNA, control = 100.00) ([3]; ascorbic acid 100 μM): 157.30 | procollagen concentration in the intracellular compartment ([4]; Example 4): less than that observed with the untreated control | Procoll Mean (intracellular procollagen) ([4]; ascorbic acid 0.1 μM): 116 ng/mL | Ratio: Procoll/DNA Mean ([4]; ascorbic acid 0.1 μM): 0.37 | Stat Mean (Procoll/DNA, control = 100.00) ([4]; ascorbic acid 0.1 μM): 102.85 | Procoll Mean (intracellular procollagen) ([4]; ascorbic acid 1 μM): 108 ng/mL | Ratio: Procoll/DNA Mean ([4]; ascorbic acid 1 μM): 0.36 | Stat Mean (Procoll/DNA, control = 100.00) ([4]; ascorbic acid 1 μM): 100.76 | Procoll Mean (intracellular procollagen) ([4]; ascorbic acid 10 μM): 114 ng/mL | Ratio: Procoll/DNA Mean ([4]; ascorbic acid 10 μM): 0.41 | Stat Mean (Procoll/DNA, control = 100.00) ([4]; ascorbic acid 10 μM): 108.02 | Procoll Mean (intracellular procollagen) ([4]; ascorbic acid 50 μM): 60 ng/mL | Ratio: Procoll/DNA Mean ([4]; ascorbic acid 50 μM): 0.22 | Stat Mean (Procoll/DNA, control = 100.00) ([4]; ascorbic acid 50 μM): 60.83 | Procoll Mean (intracellular procollagen) ([4]; ascorbic acid 100 μM): 66 ng/mL | Ratio: Procoll/DNA Mean ([4]; ascorbic acid 100 μM): 0.23 | Stat Mean (Procoll/DNA, control = 100.00) ([4]; ascorbic acid 100 μM): 63.69 | DNA Mean (normal human fibroblasts; 50 μM, Example 6 and 7): 497.4 and 497.3 | DNA Mean (normal human fibroblasts; [5]): 318 | DNA Mean (normal human fibroblasts; ascorbic acid 1 μM, Example 4): 303 | DNA Mean (normal human fibroblasts; ascorbic acid 5 μM, Table 5.3): 220 | DNA Mean (normal human fibroblasts; ascorbic acid 5 μM, Table 5.4): 212 | DNA Mean (normal human fibroblasts; ascorbic acid 10 μM, Example 4): 281 | DNA Mean (normal human fibroblasts; ascorbic acid 10 μM, Table 5.3): 249 | DNA Mean (normal human fibroblasts; ascorbic acid 10 μM, Table 5.4): 241 | DNA Mean (normal human fibroblasts; ascorbic acid 25 μM, Table 5.3): 232 | DNA Mean (normal human fibroblasts; ascorbic acid 25 μM, Table 5.4): 236 | DNA Mean (normal human fibroblasts; ascorbic acid 50 μM, Example 4): 279 | DNA Mean (normal human fibroblasts; ascorbic acid 50 μM, Table 5.3): 180 | DNA Mean (normal human fibroblasts; ascorbic acid 50 μM, Table 5.4): 236 | DNA Mean (normal human fibroblasts; [7]): 291 | DNA Mean (normal human fibroblasts; ascorbic acid 100 μM, Table 5.3): 204 | DNA Mean (normal human fibroblasts; ascorbic acid 100 μM, Table 5.4): 246 | Area/cells % (control = 100) (collagen I): 114.96% | Area/cells Mean (collagen I fluorescence) (collagen I): 124238.13
